Among the test systems are DU-145 prostate; HOP-18 NSCLC; SNB-78 CNS; T-47D breast; DLD-1 colon; HS 578T breast; DMS 114 small cell lung; MCF7 breast; NCI/ADR-RES ovarian; MDA-MB-435.
Common to all, as to assay: inhibition of tumour cell growth, NCI panel, 48 h

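How tested: cells in 96-well plates exposed to compound for 48 hours at five concentrations. TGI denotes the concentration required for complete inhibition of growth.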

As to `COc1ccc2[nH]c(-c3ccc(O)cc3)cc(=O)c2c1`, the TGI is > 100 µM in the assay with DU-145 prostate; > 29.9 µM in the assay with HOP-18 NSCLC; > 100 µM in the assay with SNB-78 CNS; 79.6 µM in the assay with T-47D breast; > 100 µM with DLD-1 colon; > 100 µM in the assay with HS 578T breast. The TGI is 1.49 µM in the assay with DMS 114 small cell lung and > 100 µM in the assay on MCF7 breast.
Turning to `Cc1c(C)c(CC(=O)N2CC2)c(C)c(C)c1CC(=O)N1CC1`, the TGI in the assay on DU-145 prostate came to 15.8 µM; in the assay on NCI/ADR-RES ovarian it was 74.4 µM; with HOP-18 NSCLC, 75.3 µM; in the assay with SNB-78 CNS, 57.3 µM; with T-47D breast, 80.5 µM; in the assay with MDA-MB-435, 33.6 µM. The TGI in the assay with DLD-1 colon was 56.5 µM; in the assay with HS 578T breast, 81.9 µM; in the assay on DMS 114 small cell lung, 24.5 µM; in the assay with MCF7 breast, 63.4 µM.
`C=C1C(=O)C23C(O)C1CC[C@H]2C12CCCC(C)(COC(C)=O)[C@H]1[C@H](O)[C@]3(O)OC2` (some centres undefined): the TGI is 16.2 µM in the assay with DU-145 prostate; 2.54 µM in the assay on HOP-18 NSCLC; 2.96 µM with SNB-78 CNS; 9.59 µM in the assay on T-47D breast; 1.7 µM in the assay with DLD-1 colon; 9.99 µM in the assay on HS 578T breast. Also, in the assay with DMS 114 small cell lung, the TGI worked out at 4.35 µM.
As to `CCCCCCCCCCCCCCCCCCOCC(COCCOCC[N+]1(CCCCCC(=O)[O-])CCCC1)Oc1ncccn1` (centres undefined), the TGI in the assay on DU-145 prostate was found to be 27.2 µM; in the assay with NCI/ADR-RES ovarian it was 24.1 µM; in the assay with HOP-18 NSCLC, 13.7 µM; in the assay with SNB-78 CNS, 4.52 µM; in the assay on T-47D breast it was 21.2 µM; with MDA-MB-435 it was 25 µM. The TGI with DLD-1 colon was 14 µM; in the assay on HS 578T breast, 28.8 µM; with DMS 114 small cell lung it was 7.1 µM; in the assay on MCF7 breast it was 16.1 µM.
In the case of `COc1ccc(-c2c(C3=NCCCN3)nnn2-c2ccc([N+](=O)[O-])cc2)cc1`, the TGI with HOP-18 NSCLC, in the assay with SNB-78 CNS, with DLD-1 colon and with DMS 114 small cell lung was > 100 µM in each case.
As for `COc1ccc(C2Oc3c(c(O)cc4c3[C@H](c3ccc(O)cc3O)[C@H](O)C(c3ccc(O)c(O)c3)O4)C[C@@H]2O)cc1O` (some centres undefined), the TGI in the assay with HOP-18 NSCLC, in the assay with SNB-78 CNS, in the assay on DLD-1 colon and with DMS 114 small cell lung was > 100 µM in each case.
`N#CC(C#N)=c1c2nsnc2c(=C(C#N)C#N)c2nsnc12`: the TGI came out at 5.09 µM in the assay on HOP-18 NSCLC, 3.28 µM in the assay on SNB-78 CNS, 4.39 µM with DLD-1 colon and 3.93 µM in the assay with DMS 114 small cell lung.
In the same order, the values of `Cc1c(C(=O)/C=C/c2ccccc2[N+](=O)[O-])[n+](=O)c2ccccc2n1[O-]` are 28.7 µM, 70.7 µM, 17.9 µM and 18 µM.
`CCOC(OC1=C(C#N)CCCC1)C(CC)[Se]c1ccccc1` (centres undefined): the TGI in the assay with HOP-18 NSCLC was 54.1 µM; with SNB-78 CNS, 89.7 µM; with DLD-1 colon, 34.4 µM; in the assay on DMS 114 small cell lung, 15.4 µM.
In the same order, the values of `Cc1cccc(C)c1N1C(=O)C(=O)C(c2nc3ccccc3s2)/C(=N/NC(=O)NN)C1=O` (centres undefined) are > 100 µM, > 100 µM, > 100 µM and > 100 µM.

The record behind these values is PubChem BioAssay (NCI).
